Measurements: PubChem BioAssay (NCI)
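Assay format: 96-well plates, 48-hour exposure. Abbreviation: GI50, concentration required for 50% inhibition of growth. The concentration for full growth arrest is given as TGI.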

Tests used:
Assay in all cases: NCI anticancer screen, dose series, 48 h
HOP-92 NSCLC = test system: HOP-92 NSCLC
HS 578T breast = test system: HS 578T breast
MOLT-4 leukemia = test system: MOLT-4 leukemia
SK-MEL-28 melanoma = test system: SK-MEL-28 melanoma
OVCAR-4 ovarian = test system: OVCAR-4 ovarian
LOX IMVI melanoma = test system: LOX IMVI melanoma
ACHN renal = test system: ACHN renal
LXFL 529 NSCLC = test system: LXFL 529 NSCLC
SK-MEL-5 melanoma = test system: SK-MEL-5 melanoma
DU-145 prostate = test system: DU-145 prostate
MDA-MB-435 = test system: MDA-MB-435
HCT-15 colon = test system: HCT-15 colon
UACC-62 melanoma = test system: UACC-62 melanoma
M19-MEL melanoma = test system: M19-MEL melanoma
SF-539 CNS = test system: SF-539 CNS
COLO 205 colon = test system: COLO 205 colon
OVCAR-8 ovarian = test system: OVCAR-8 ovarian
HCC-2998 colon = test system: HCC-2998 colon
HOP-62 NSCLC = test system: HOP-62 NSCLC
DMS 114 small cell lung = test system: DMS 114 small cell lung
HL-60(TB) leukemia = test system: HL-60(TB) leukemia
EKVX NSCLC = test system: EKVX NSCLC
A498 renal = test system: A498 renal
NCI/ADR-RES ovarian = test system: NCI/ADR-RES ovarian
A549 NSCLC = test system: A549 NSCLC
TK-10 renal = test system: TK-10 renal
BT-549 breast = test system: BT-549 breast
IGROV1 ovarian = test system: IGROV1 ovarian
CAKI-1 renal = test system: CAKI-1 renal
DLD-1 colon = test system: DLD-1 colon
SNB-19 CNS = test system: SNB-19 CNS
SK-OV-3 ovarian = test system: SK-OV-3 ovarian
SF-268 CNS = test system: SF-268 CNS
SK-MEL-2 melanoma = test system: SK-MEL-2 melanoma
786-0 renal = test system: 786-0 renal
RPMI-8226 leukemia = test system: RPMI-8226 leukemia
OVCAR-5 ovarian = test system: OVCAR-5 ovarian
MALME-3M melanoma = test system: MALME-3M melanoma
KM12 colon = test system: KM12 colon
SNB-78 CNS = test system: SNB-78 CNS
MDA-MB-231 breast = test system: MDA-MB-231 breast
RXF 393 renal = test system: RXF 393 renal
NCI-H522 lung = test system: NCI-H522 lung
K-562 leukemia = test system: K-562 leukemia
DMS 273 small cell lung = test system: DMS 273 small cell lung
PC-3 prostate = test system: PC-3 prostate
MCF7 breast = test system: MCF7 breast
U251 CNS = test system: U251 CNS
NCI-H460 lung = test system: NCI-H460 lung
OVCAR-3 ovarian = test system: OVCAR-3 ovarian
RXF-631 renal = test system: RXF-631 renal
UO-31 renal = test system: UO-31 renal
SR leukemia = test system: SR leukemia
T-47D breast = test system: T-47D breast
NCI-H23 lung = test system: NCI-H23 lung
MDA-N = test system: MDA-N
XF 498 CNS = test system: XF 498 CNS
HT29 colon = test system: HT29 colon
NCI-H226 lung = test system: NCI-H226 lung
HCT-116 colon = test system: HCT-116 colon
UACC-257 melanoma = test system: UACC-257 melanoma
SNB-75 CNS = test system: SNB-75 CNS
SN12C renal = test system: SN12C renal
CCRF-CEM leukemia = test system: CCRF-CEM leukemia
M14 melanoma = test system: M14 melanoma
SW-620 colon = test system: SW-620 colon
SF-295 CNS = test system: SF-295 CNS
KM20L2 colon = test system: KM20L2 colon

Compound: O=P(O)(NCCCl)NCCCl
- TGI (HOP-92 NSCLC): > 100 µM
- TGI (HS 578T breast): > 100 µM
- TGI (MOLT-4 leukemia): > 100 µM
- TGI (SK-MEL-28 melanoma): > 100 µM
- TGI (OVCAR-4 ovarian): > 100 µM
- TGI (LOX IMVI melanoma): > 100 µM
- TGI (ACHN renal): > 100 µM
- GI50 (LXFL 529 NSCLC): > 100 µM
- TGI (LXFL 529 NSCLC): > 100 µM
- GI50 (SK-MEL-5 melanoma): > 100 µM
- TGI (SK-MEL-5 melanoma): > 100 µM
- TGI (DU-145 prostate): > 100 µM
- TGI (MDA-MB-435): > 100 µM
- GI50 (HCT-15 colon): > 100 µM
- TGI (HCT-15 colon): > 100 µM
- TGI (UACC-62 melanoma): > 100 µM
- GI50 (M19-MEL melanoma): > 100 µM
- TGI (M19-MEL melanoma): > 100 µM
- TGI (SF-539 CNS): > 100 µM
- TGI (COLO 205 colon): > 100 µM
- GI50 (OVCAR-8 ovarian): > 100 µM
- TGI (OVCAR-8 ovarian): > 100 µM
- TGI (HCC-2998 colon): > 100 µM
- TGI (HOP-62 NSCLC): > 100 µM
- GI50 (DMS 114 small cell lung): 99.1 µM
- TGI (DMS 114 small cell lung): > 100 µM
- TGI (HL-60(TB) leukemia): > 100 µM
- GI50 (EKVX NSCLC): > 100 µM
- TGI (EKVX NSCLC): > 100 µM
- TGI (A498 renal): > 100 µM
- TGI (NCI/ADR-RES ovarian): > 100 µM
- TGI (A549 NSCLC): > 100 µM
- GI50 (TK-10 renal): > 100 µM
- TGI (TK-10 renal): > 100 µM
- TGI (BT-549 breast): > 100 µM
- TGI (IGROV1 ovarian): > 100 µM
- TGI (CAKI-1 renal): > 100 µM
- GI50 (DLD-1 colon): > 100 µM
- TGI (DLD-1 colon): > 100 µM
- GI50 (SNB-19 CNS): > 100 µM
- TGI (SNB-19 CNS): > 100 µM
- TGI (SK-OV-3 ovarian): > 100 µM
- TGI (SF-268 CNS): > 100 µM
- TGI (SK-MEL-2 melanoma): > 100 µM
- TGI (786-0 renal): > 100 µM
- TGI (RPMI-8226 leukemia): > 100 µM
- GI50 (OVCAR-5 ovarian): > 100 µM
- TGI (OVCAR-5 ovarian): > 100 µM
- TGI (MALME-3M melanoma): > 100 µM
- GI50 (KM12 colon): > 100 µM
- TGI (KM12 colon): > 100 µM
- GI50 (SNB-78 CNS): > 100 µM
- TGI (SNB-78 CNS): > 100 µM
- TGI (MDA-MB-231 breast): > 100 µM
- GI50 (RXF 393 renal): > 100 µM
- TGI (RXF 393 renal): > 100 µM
- TGI (NCI-H522 lung): > 100 µM
- TGI (K-562 leukemia): > 100 µM
- TGI (DMS 273 small cell lung): > 100 µM
- TGI (PC-3 prostate): > 100 µM
- TGI (MCF7 breast): > 100 µM
- GI50 (U251 CNS): > 100 µM
- TGI (U251 CNS): > 100 µM
- GI50 (NCI-H460 lung): 4.03 µM
- TGI (NCI-H460 lung): > 100 µM
- GI50 (OVCAR-3 ovarian): > 100 µM
- TGI (OVCAR-3 ovarian): > 100 µM
- TGI (RXF-631 renal): > 100 µM
- TGI (UO-31 renal): > 100 µM
- GI50 (SR leukemia): 40.6 µM
- TGI (SR leukemia): > 100 µM
- TGI (T-47D breast): > 100 µM
- TGI (NCI-H23 lung): > 100 µM
- TGI (MDA-N): > 100 µM
- GI50 (XF 498 CNS): > 100 µM
- TGI (XF 498 CNS): > 100 µM
- GI50 (HT29 colon): > 100 µM
- TGI (HT29 colon): > 100 µM
- TGI (NCI-H226 lung): > 100 µM
- TGI (HCT-116 colon): > 100 µM
- GI50 (UACC-257 melanoma): > 100 µM
- TGI (UACC-257 melanoma): > 100 µM
- GI50 (SNB-75 CNS): 7.07 µM
- TGI (SNB-75 CNS): > 100 µM
- TGI (SN12C renal): > 100 µM
- TGI (CCRF-CEM leukemia): > 100 µM
- GI50 (M14 melanoma): 5.78 µM
- TGI (M14 melanoma): > 100 µM
- GI50 (SW-620 colon): > 100 µM
- TGI (SW-620 colon): > 100 µM
- TGI (SF-295 CNS): > 100 µM

Compound: CCc1cccc(C)c1NC(=O)C1=C(C)NC(C)=C(C(=O)Nc2c(C)cccc2CC)C1c1ccc([N+](=O)[O-])cc1
- TGI (HOP-92 NSCLC): 30.1 µM
- TGI (MOLT-4 leukemia): 46.6 µM
- TGI (KM20L2 colon): > 100 µM
- TGI (SK-MEL-28 melanoma): > 100 µM
- TGI (OVCAR-4 ovarian): > 100 µM
- TGI (LOX IMVI melanoma): > 100 µM
- TGI (ACHN renal): > 100 µM
- TGI (LXFL 529 NSCLC): > 100 µM
- TGI (SK-MEL-5 melanoma): > 100 µM
- TGI (M19-MEL melanoma): > 100 µM
- TGI (SF-539 CNS): > 100 µM
- TGI (COLO 205 colon): > 100 µM
- TGI (OVCAR-8 ovarian): > 100 µM
- TGI (HCC-2998 colon): > 100 µM
- TGI (HOP-62 NSCLC): > 100 µM
- TGI (HL-60(TB) leukemia): 49.5 µM
- TGI (EKVX NSCLC): > 100 µM
- TGI (A498 renal): > 100 µM
- TGI (A549 NSCLC): > 100 µM
- TGI (TK-10 renal): > 100 µM
- TGI (IGROV1 ovarian): > 100 µM
- TGI (CAKI-1 renal): 89.6 µM
- TGI (DLD-1 colon): > 100 µM
- TGI (SNB-19 CNS): > 100 µM
- TGI (SK-OV-3 ovarian): > 100 µM
- TGI (SF-268 CNS): > 100 µM
- TGI (SK-MEL-2 melanoma): > 100 µM
- TGI (786-0 renal): > 100 µM
- TGI (RPMI-8226 leukemia): 57.3 µM
- TGI (OVCAR-5 ovarian): > 100 µM
- TGI (MALME-3M melanoma): > 100 µM
- TGI (KM12 colon): > 100 µM
- TGI (SNB-78 CNS): > 100 µM
- TGI (RXF 393 renal): > 100 µM
- TGI (NCI-H522 lung): 68.3 µM
- TGI (K-562 leukemia): > 100 µM
- TGI (DMS 273 small cell lung): > 100 µM
- TGI (U251 CNS): > 100 µM
- TGI (NCI-H460 lung): > 100 µM
- TGI (OVCAR-3 ovarian): > 100 µM
- TGI (RXF-631 renal): > 100 µM
- TGI (UO-31 renal): > 100 µM
- TGI (NCI-H23 lung): > 100 µM
- TGI (XF 498 CNS): 66.9 µM
- TGI (HT29 colon): > 100 µM
- TGI (NCI-H226 lung): > 100 µM
- TGI (UACC-257 melanoma): > 100 µM
- TGI (SNB-75 CNS): > 100 µM
- TGI (SN12C renal): > 100 µM
- TGI (CCRF-CEM leukemia): > 100 µM
- TGI (M14 melanoma): > 100 µM
- TGI (SW-620 colon): > 100 µM
- TGI (SF-295 CNS): > 100 µM
